Results on five molecules are retold here after publication PMC7082753, “Hazards of Using Masking Protocols When Performing Ligand Binding Assays: Lessons From the Sigma-1 and Sigma-2 Receptors” (Frontiers in Pharmacology, 2020).

Molecules are shown by their SMILES. Where two headings read alike, the source gives them in different places.

The test system of one test is sigma receptors. Nature of the test: Saturation binding of pan-sigma ligand [³H] DTG to MDA-MB-468 cell membranes. Set-up: species or system human. As to conditions: MDA-MB-468 membranes; n = 3. The procedure:
(§1) Assays (total volume 100 μl) were performed at room temperature for 4 h with 1–300 nM [^3H] […] Assays were terminated by addition of ice-cold TBS and filtration through glass fibre filters (GF/C, Sigma-Aldrich, Poole, UK) using a cell harvester. Tubes and filter discs were washed with ice-cold TBS (2 x 3 ml) and the filter discs dried under vacuum. Scintillation counting was carried out in ProSafe FC+ cocktail after overnight incubation.

Test [1] deals with residual binding sites for [³H] DTG in TMEM97 knock-out HeLa cells. As to conditions: cited from earlier work.
The subject of test [2] is sigma-2 receptor. Briefly: Literature [³H] DTG and [³H] PPP binding in PC12 cells and affinity estimated from it. Set-up: species or system rat. Conditions: for K30: 30 % displacement; for Ki: data of ref Hellewell and Bowen, 1990. The text has this:
Calculations for saturation binding are based on non-linear analysis of idealised data.

Test [3] concerns sigma-2 receptor. As to conditions: PC12 cells, ref Hellewell and Bowen, 1990, cited from earlier work.
Test [4] has as its target sigma-1 receptor. Nature of the test: Literature dextrallorphan competition against [³H] PPP (Largent et al.). Format: binding. As to conditions: data of ref Largent et al., 1987.
The target of test [5] is sigma-1 receptor. Set-up: method as in Largent et al., 1987. Conditions: ref Largent et al., 1987, cited from earlier work.
Test [6] addresses sigma-1 receptor. Conditions: ref Hellewell and Bowen, 1990; read-out: Ki (sigma-1 affinity); cited from earlier work.
In test [7] the target is T1, sigma-2 receptor (Homo sapiens, UniProt Q5BJF2). Briefly: Two-site competition of (+) pentazocine with [³H] DTG in MDA-MB-468 membranes, low-affinity site. Format: binding. Set-up: endogenous in cells. As to conditions: two-site analysis. The method, then: (§2) Competition binding assays (total volume 100 μl) were performed using a final assay concentration of 50 nM, 100 nM, or 1 µM [^3H] […] Alternatively, 10–30 nM [³H] […] The assay was then allowed to equilibrate at room temperature for 4 h. […] Tubes and filter discs were washed with ice-cold TBS (2 x 3 ml), and the filter discs dried under vacuum.
T1 sequence (Q5BJF2 whole entry): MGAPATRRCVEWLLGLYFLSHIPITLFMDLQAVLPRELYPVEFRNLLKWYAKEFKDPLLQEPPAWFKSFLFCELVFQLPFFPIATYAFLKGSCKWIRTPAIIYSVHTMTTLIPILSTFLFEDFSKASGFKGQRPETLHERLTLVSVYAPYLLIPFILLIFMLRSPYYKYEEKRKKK

The next test has as its system sigma sites. As to conditions: spinal cord; competition experiments; ref Kovacs and Larson, 1995; cited from earlier work.
Test [8] addresses T1, sigma-2 receptor. Briefly: [³H] DTG saturation binding to MCF7 membranes in absence or presence of (+) pentazocine. Set-up: from sigma-2 receptors in membranes prepared from MCF7 cells; endogenous in cells; host or cells: MCF7 (ATCC HTB-22) cell membranes. The method, then: as §1
In test [9] the target is T2, sigma-1 receptor (Homo sapiens, UniProt Q99720).
T2 construct: sigma-1 receptors in membranes prepared from MDA-MB-468 cells; endogenous in cells; host or cells: MDA-MB-468 (ATCC HTB-132) cell membranes
T2 sequence (Q99720 whole entry): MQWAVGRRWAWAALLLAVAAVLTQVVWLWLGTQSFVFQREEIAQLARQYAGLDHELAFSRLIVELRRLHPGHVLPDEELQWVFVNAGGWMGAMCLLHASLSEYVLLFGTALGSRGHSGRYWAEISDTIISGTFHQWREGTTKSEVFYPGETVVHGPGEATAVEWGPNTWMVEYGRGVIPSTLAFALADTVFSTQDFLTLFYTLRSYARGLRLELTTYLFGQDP
It counts as binding. Conditions: MDA-MB-468; two-site analysis. The procedure:
as §2

Test [10] concerns sigma-1 receptor. Briefly: Saturation binding of [³H] (+) pentazocine to MCF7 cell membranes. Set-up: species or system human.
Experimental: MDA-MB-468 cells were maintained in DMEM, high glucose (41965-062) supplemented with 10% foetal calf serum. MCF7 cells were maintained in MEM (M2279) supplemented with 2 mM L-glutamine and 10% foetal calf serum. Cells were cultured at 37°C in a humidified incubator with 5% CO2. […] The supernatant was discarded and the pellet suspended in SBB.
Assays (total volume 100 µl) were performed using 0–300 nM [^3H] […] Non-specific binding was determined using 1 mM reduced haloperidol ([Schetz et al., 2007]). […] Assays were terminated by addition of ice-cold tris-buffered saline (TBS: 154 mM NaCl, 10 mM Tris, pH 7.4) and filtration through glass fibre filters (GF/B, Sigma-Aldrich, Poole, UK) using a cell harvester. Tubes and filter discs were washed (2 x 3 ml) with ice-cold TBS, and the filter discs dried under vacuum. Scintillation counting was carried out in ProSafe FC+ cocktail (Meridian Biotechnologies Ltd, Tadworth, UK) after overnight incubation.
The subject of test [11] is sigma-1 receptor. Conditions: not affected by GTP or suramin; ref Brimson et al., 2011; cited from earlier work.
Test [12] concerns the target sigma-2 receptor. Set-up: method as in Hou et al., 2006; Zeng et al., 2019. As to conditions: ref Hou et al., 2006; Zeng et al., 2019; cited from earlier work.
Test [13] deals with sigma-1 receptor. Set-up: method as in Hou et al., 2006; Zeng et al., 2019. Conditions: ref Hou et al., 2006; Zeng et al., 2019; cited from earlier work.

In the case of `Cc1ccccc1NC(=N)Nc1ccccc1C` [DTG, 1,3-di-O-tolylguanidine], in the test with sigma receptors, the pKd is 7.88 ± 0.01. In addition, in test [1] (presence of 1 μM (+) pentazocine, ref Riad et al., 2018, Zeng et al., 2019, read-out: apparent Kd), the Kd is 300 to 400 nM.
On to `C=CCN1CC[C@@]23CCCC[C@@H]2[C@@H]1Cc1ccc(O)cc13` [dextrallorphan], for which the K30 was 18.76 µM in the test on sigma-2 receptor [2] (calculated using DTG (5 nM, Kd […])) and 6.55 µM with sigma-2 receptor [2] (calculated using PPP (3 nM, Kd 86.3 nM)). Further, the Ki is 44.7 µM with sigma-2 receptor [2] (estimated from DTG data in PC12 cells); 15 µM in the test with sigma-2 receptor [2] (estimated from PPP data in PC12 cells); 153 to 158 nM at sigma-1 receptor [4] (Cheng-Prusoff correction of IC50 163 nM, read-out: Ki); 155 nM at sigma-1 receptor [4] (lowest calculated affinity, from Ki 153-158 nM, read-out: sigma-1 affinity used for modelling); 16.1 nM at sigma-1 receptor [6]. For the same molecule, the “displacement of [³H] DTG or [³H] PPP” value in the test on sigma-2 receptor [3] (5 μM dextrallorphan) is reported as “less than 30%”. The IC50 at sigma-1 receptor [5] (against 1-2 nM [³H] PPP) was 163 nM.
As to `CC(C)=CCN1CC[C@]2(C)c3cc(O)ccc3C[C@H]1[C@H]2C` [(+) pentazocine, (1S,9S,13S)-1,13-dimethyl-10-(3-methylbut-2-en-1-yl)-10-azatricyclotrideca-2,4,6-trien-4-ol], the “% of sites with low affinity” value at sigma-2 receptor [7] was 64%. In the test on sigma-2 receptor [3], the “displacement of DTG and PPP binding” value was “low-affinity”. Further, the “[³H] DTG displaced with high affinity” value in the test with sigma sites was 30%. Besides, the “effect on Bmax of [³H] DTG” value at sigma-2 receptor [8] (100 nM (+) pentazocine) is “did not affect”. The “effect on calculated Bmax of [³H] DTG” value at sigma-2 receptor [8] (1 µM (+) pentazocine) is “did not affect”. Further, the “% of sites with high affinity” value on sigma-1 receptor [9] worked out at 36%. In addition, the specific binding entry in the test on sigma-1 receptor [10] is reported as “no specific binding”. For the same molecule, in the test with sigma-1 receptor [11], the Hill slope entry was “unity”.
Consider `CCCN1CCCC(c2cccc(O)c2)C1` (single isomer, unassigned; (+)) [PPP, (+)-3-(3-hydroxyphenyl)-N-(1-propyl)piperidine], for which the Kd is 86.3 nM at sigma-2 receptor [3] (PPP) and 30 nM on sigma-1 receptor [5] (radioligand [³H] PPP).
As for `COc1cc2c(cc1OC)CN(CCCCNC(=O)c1cc(I)cc(OC)c1OC)CC2` [RHM-4], the Ki on sigma-2 receptor [12] was 8.2 nM; at sigma-1 receptor [13], 12.9 µM. Besides, the “detection of residual binding when used as radioligand” value in [1] (ref Zeng et al., 2019) was “unable to detect this residual binding”.
